In US7138361B2, “Herbicidal heterocycles” (E. I. du Pont de Nemours and Company, priority 2000, dated 2006):

How the values were obtained:
Assay type in all cases: in vivo
[1] = test system: cocklebur (Xanthium strumarium); assay: Test B postemergence
Method in brief: (§1)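 Ratings on a 0 to 100 visual scale (100 complete control) compare treated plants with controls 13 to 15 days after application. Treatments were pre- or postemergence sprays of compound in non-phytotoxic solvent with surfactant.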

[2] = test system: pigweed (Amaranthus retroflexus); assay: Test B postemergence
Method in brief: as §1

[3] = test system: Surinam grass (Brachiaria decumbens); assay: Test B postemergence
Method in brief: as §1

[4] = test system: giant foxtail (Setaria faberii); assay: Test B postemergence
Method in brief: as §1

[5] = test system: blackgrass (Alopecurus myosuroides); assay: Test B postemergence
Method in brief: as §1

[6] = test system: velvetleaf (Abutilon theophrasti); assay: Test B postemergence
Method in brief: as §1

[7] = test system: barnyardgrass (Echinochloa crus-galli); assay: Test B postemergence
Method in brief: as §1

corn (Zea mays) [8] = assay: Test B postemergence
Method in brief: as §1

[9] = test system: wheat (Triticum aestivum); assay: Test B postemergence
Method in brief: as §1

[10] = test system: lambsquarters (Chenopodium album); assay: Test B postemergence
Method in brief: as §1

wild oat (Avena fatua) = assay: Test B postemergence
Method in brief: as §1

[11] = test system: morning glory (Ipomoea hederacea); assay: Test B postemergence
Method in brief: as §1

[12] = test system: crabgrass (Digitaria sanguinalis); assay: Test B postemergence
Method in brief: as §1

[13] = test system: lambsquarters (Chenopodium album); assay: Test C preemergence; details: for Plant response rating (0 to 100), Lambsquarters: Rate 500 g/ha, visual evaluation after 12 to 14 days
Method in brief: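 Preemergence: seeds sown then treated. Postemergence: plants 2–18 cm, 1- to 4-leaf. Both with surfactant-containing solvent formulation; visual injury scored 0–100 after 12–14 d.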

[14] = test system: cocklebur (Xanthium strumarium); assay: Test B preemergence
Method in brief: as §1

[15] = test system: pigweed (Amaranthus retroflexus); assay: Test B preemergence
Method in brief: as §1

[16] = test system: Surinam grass (Brachiaria decumbens); assay: Test B preemergence
Method in brief: as §1

[17] = test system: giant foxtail (Setaria faberii); assay: Test B preemergence
Method in brief: as §1

[18] = test system: velvetleaf (Abutilon theophrasti); assay: Test B preemergence
Method in brief: as §1

rice (Oryza saliva) = assay: Test B preemergence
Method in brief: as §1

[19] = test system: barnyardgrass (Echinochloa crus-galli); assay: Test B preemergence
Method in brief: as §1

corn (Zea mays) [20] = assay: Test B preemergence
Method in brief: as §1

[21] = test system: lambsquarters (Chenopodium album); assay: Test B preemergence
Method in brief: as §1

[22] = test system: morning glory (Ipomoea hederacea); assay: Test B preemergence
Method in brief: as §1

[23] = test system: crabgrass (Digitaria sanguinalis); assay: Test B preemergence
Method in brief: as §1

[24] = Rate 125 g/ha, scale 0 to 100, 0 no effect, 100 complete control
[25] = Rate 500 g/ha, scale 0 (no effect) to 100 (complete control), 13 to 15 days
[26] = preemergence, Rate 62 g/ha, scale 0 to 100
[27] = preemergence, Rate 250 g/ha, scale 0 to 100, 0 no effect, 100 complete control
[28] = Preemergence, Rate 500 g/ha, scale 0 to 100, 0 no effect, 100 complete control
[29] = preemergence, Rate 125 g/ha, scale of 0 to 100 where 0 is no effect and 100 is complete control, 13 to 15 days
[30] = Rate 500 g/ha, scale 0 to 100, 0 is no effect, 100 is complete control, 13 to 15 days

Question: Which results are given for `CCC(CC)c1ccn(C2CCN(c3ccc(F)c(C(F)(F)F)c3)C2=O)n1` (stereo not drawn) [Compound 144]?
Answer: Plant response rating, Cocklebur [1, 24]: 0; Plant response rating, Cocklebur [1, 25]: 30; Plant response rating, Pigweed [2, 24]: 50; Plant response rating, Pigweed [2, 25]: 100; Plant response rating, Surinam grass [3, 24]: 0; Plant response rating, Surinam grass [3, 25]: 0; Plant response rating, Foxtail, Giant [4, 24]: 20; Plant response rating, Foxtail, Giant [4, 25]: 40; Plant response rating, Blackgrass [5, 24]: 0; Plant response rating, Blackgrass [5, 25]: 0; Plant response rating, Velvetleaf [6, 24]: 0; Plant response rating, Velvetleaf [6, 25]: 0; Plant response rating, Barnyardgrass [7, 24]: 0; Plant response rating, Barnyardgrass [7, 25]: 0; Plant response rating, Corn (corn (Zea mays) [8]; [24]): 0; Plant response rating, Corn (corn (Zea mays) [8]; [25]): 0; Plant response rating, Wheat [9, 24]: 0; Plant response rating, Wheat [9, 25]: 0; Plant response rating, Lambsquarters [10, 24]: 100; Plant response rating, Lambsquarters [10, 25]: 100; Plant response rating, Wild Oat (wild oat (Avena fatua); [24]): 0; Plant response rating, Wild Oat (wild oat (Avena fatua); [25]): 0; Plant response rating, Morningglory [11, 24]: 0; Plant response rating, Morningglory [11, 25]: 30; Plant response rating, Crabgrass [12, 24]: 0; Plant response rating, Crabgrass [12, 25]: 40; Plant response rating, Lambsquarters [13, 24]: 100; Plant response rating, Lambsquarters [13, 26]: 100; Plant response rating (0 to 100), Lambsquarters ([13]; preemergence): 100; Plant response rating, Lambsquarters [13, 27]: 100; Plant response rating, Cocklebur [14, 28]: 0; Plant response rating, Cocklebur [14, 29]: 0; Plant response rating, Pigweed [15, 28]: 100; Plant response rating, Pigweed [15, 29]: 100; Plant response rating, Surinam grass [16, 28]: 70; Plant response rating, Surinam grass [16, 29]: 0; Plant response rating, Foxtail, Giant [17, 28]: 100; Plant response rating, Foxtail, Giant [17, 29]: 100; Plant response rating, Velvetleaf [18, 28]: 0; Plant response rating, Velvetleaf [18, 29]: 0; Plant response rating, Rice (rice (Oryza saliva); [28]): 0; Plant response rating, Rice (rice (Oryza saliva); [29]): 0; Plant response rating, Barnyardgrass [19, 28]: 100; Plant response rating, Barnyardgrass [19, 29]: 80; Plant response rating, Corn (corn (Zea mays) [20]; [28]): 20; Plant response rating, Corn (corn (Zea mays) [20]; [29]): 0; Plant response rating, Lambsquarters [21, 28]: 100; Plant response rating, Lambsquarters [21, 29]: 100; Plant response rating, Morningglory [22, 28]: 0; Plant response rating, Morningglory [22, 29]: 0; Plant response rating, Crabgrass [23, 28]: 100; Plant response rating, Crabgrass [23, 29]: 100

Question: With `COc1cc(N2CCC(n3ccc(C(C)(C)C)n3)C2=O)ccc1Cl` (stereo not drawn) [Compound 117] as the compound, how does the “Plant response rating, Cocklebur” value [1, 24] read?
Answer: The value was 90.

Question: What about the “Plant response rating, Cocklebur” value [1, 30] of the same compound?
Answer: Its value is 100.

Question: What about the “Plant response rating, Pigweed” value [2, 24] of the same compound?
Answer: Its value is 80.

Question: What about the “Plant response rating, Surinam grass” value [3, 24] of the same compound?
Answer: Its value is 30.

Question: And the “Plant response rating, Surinam grass” value [3, 30]?
Answer: Its value is 40.

Question: What about the “Plant response rating, Foxtail, Giant” value [4, 24] of the same compound?
Answer: The value was 0.

Question: What about the “Plant response rating, Blackgrass” value [5, 24] of the same compound?
Answer: The value was 0.

Question: And the “Plant response rating, Blackgrass” value [5, 30]?
Answer: Its value is 0.

Question: What about the “Plant response rating, Velvetleaf” value [6, 24] of the same compound?
Answer: The value was 70.

Question: What about the “Plant response rating, Barnyardgrass” value [7, 24] of the same compound?
Answer: Its value is 40.

Question: And the “Plant response rating, Barnyardgrass” value [7, 30]?
Answer: The value was 90.

Question: What about the “Plant response rating, Corn” value (corn (Zea mays) [8]; [24]) of the same compound?
Answer: Its value is 0.

Question: What about the “Plant response rating, Corn” value (corn (Zea mays) [8]; [30]) of the same compound?
Answer: Its value is 0.

Question: And the “Plant response rating, Wheat” value [9, 24]?
Answer: Its value is 30.

Question: And the “Plant response rating, Lambsquarters” value [10, 24]?
Answer: The value was 90.

Question: What about the “Plant response rating, Wild Oat” value (wild oat (Avena fatua); [24]) of the same compound?
Answer: The value was 40.

Question: And the “Plant response rating, Morningglory” value [11, 24]?
Answer: Its value is 70.

Question: And the “Plant response rating, Crabgrass” value [12, 24]?
Answer: The value was 30.

Question: What about the “Plant response rating, Lambsquarters” value [13, 24] of the same compound?
Answer: Its value is 100.

Question: What about the “Plant response rating, Lambsquarters” value [13, 26] of the same compound?
Answer: Its value is 100.

Question: And the “Plant response rating (0 to 100), Lambsquarters” value ([13]; preemergence)?
Answer: Its value is 100.

Question: What about the “Plant response rating, Lambsquarters” value [13, 27] of the same compound?
Answer: Its value is 100.

Question: And the “Plant response rating, Cocklebur” value [14, 28]?
Answer: The value was 100.

Question: And the “Plant response rating, Cocklebur” value [14, 29]?
Answer: The value was 70.

Question: And the “Plant response rating, Pigweed” value [15, 28]?
Answer: The value was 100.

Question: And the “Plant response rating, Pigweed” value [15, 29]?
Answer: Its value is 100.

Question: And the “Plant response rating, Surinam grass” value [16, 28]?
Answer: The value was 100.

Question: What about the “Plant response rating, Surinam grass” value [16, 29] of the same compound?
Answer: Its value is 100.

Question: What about the “Plant response rating, Foxtail, Giant” value [17, 28] of the same compound?
Answer: Its value is 100.

Question: What about the “Plant response rating, Foxtail, Giant” value [17, 29] of the same compound?
Answer: The value was 100.

Question: What about the “Plant response rating, Velvetleaf” value [18, 28] of the same compound?
Answer: The value was 100.

Question: And the “Plant response rating, Velvetleaf” value [18, 29]?
Answer: Its value is 40.

Question: What about the “Plant response rating, Rice” value (rice (Oryza saliva); [28]) of the same compound?
Answer: The value was 70.

Question: And the “Plant response rating, Rice” value (rice (Oryza saliva); [29])?
Answer: Its value is 0.

Question: And the “Plant response rating, Barnyardgrass” value [19, 28]?
Answer: Its value is 100.

Question: And the “Plant response rating, Barnyardgrass” value [19, 29]?
Answer: Its value is 100.

Question: And the “Plant response rating, Corn” value (corn (Zea mays) [20]; [28])?
Answer: Its value is 30.

Question: What about the “Plant response rating, Corn” value (corn (Zea mays) [20]; [29]) of the same compound?
Answer: The value was 20.

Question: And the “Plant response rating, Lambsquarters” value [21, 28]?
Answer: Its value is 100.

Question: What about the “Plant response rating, Lambsquarters” value [21, 29] of the same compound?
Answer: Its value is 100.

Question: And the “Plant response rating, Morningglory” value [22, 28]?
Answer: Its value is 100.

Question: What about the “Plant response rating, Morningglory” value [22, 29] of the same compound?
Answer: Its value is 80.

Question: And the “Plant response rating, Crabgrass” value [23, 28]?
Answer: Its value is 100.

Question: What about the “Plant response rating, Crabgrass” value [23, 29] of the same compound?
Answer: The value was 100.
